{"source": "patent US11840686B2", "about": "“Modulation of prekallikrein (PKK) expression” (Ionis Pharmaceuticals, Inc., priority 2013, dated 2023)", "key": {"mouse PKK mRNA": {"test_system": "mouse PKK mRNA", "experiment": "Antisense inhibition of murine PKK mRNA in mouse primary hepatocytes (Example 9)", "type": "cell-based", "details": "Cytofectin; for % inhibition of mouse PKK mRNA levels: approx. 24 hours", "protocol": "Antisense oligonucleotides targeting a murine PKK nucleic acid were designed and tested for their effects on PKK mRNA in vitro. Cultured mouse primary hepatocytes at a density of 10,000 cells per well were transfected using Cytofectin reagent with 12.5 nM, 25.0 nM, 50.0 nM, 100.0 nM, and 200.0 nM of antisense oligonucleotide. After a treatment period of approximately 24 hours, RNA was isolated from the cells and mouse PKK mRNA levels were measured by quantitative real-time PCR using the murine primer probe set RTS3313 (forward sequence […], designated herein as SEQ ID NO: 2228; reverse sequence […], designated herein as SEQ ID NO: 2229; probe sequence […], designated herein as SEQ ID NO: 2230). PKK mRNA levels were adjusted according to total RNA content, as measured by RIBOGREEN.\nThe chimeric antisense oligonucleotides were designed as 5-10-5 MOE gapmers. The gapmers are 20 nucleotides in length, wherein the central gap segment is comprised of ten 2′-deoxynucleosides and is flanked on both sides (in the 5′ and 3′ directions) by wings comprising 5 nucleosides each. Each nucleoside in the 5′ wing segment and each nucleoside in the 3′ wing segment has a 2′-O-methoxyethyl modification. The internucleoside linkages throughout each gapmer are phosphorothioate linkages. All cytosine residues throughout each gapmer are 5-methylcytosines.\nISIS 482584 is targeted to SEQ ID NO: 11 (GENBANK Accession No. NM_008455.2) and has a target start site of 1586 and a target stop site of 1605. “Target start site” indicates the 5′-most nucleotide to which the gapmer is targeted. “Target stop site” indicates the 3′-most nucleotide to which the gapmer is targeted."}, "PKK mRNA": {"test_system": "PKK mRNA", "experiment": "PKK mRNA in liver of mice treated with ISIS 461756 (Example 18)", "type": "in vivo, mouse", "protocol": "Vascular permeability induced by ISIS 461756, an antisense oligonucleotide which targets murine C1 inhibitor mRNA, increases vascular permeability in mice and replicates the pathology of hereditary angioedema. The effect of ISIS 482584 on this model was evaluated.\nOne group of 8 mice was treated with 40 mg/kg ISIS 482584 administered subcutaneously twice a week for 3 weeks (weekly dose of 80 mg/kg). A second group of 8 mice was treated with 40 mg/kg of the control oligonucleotide, ISIS 141923, administered subcutaneously twice a week for 3 weeks (weekly dose of 80 mg/kg). A third group of 8 mice was treated with PBS administered subcutaneously twice a week for 3 weeks. On day 14, all the groups were treated with 12.5 mg/kg ISIS 461756 administered subcutaneously twice a week for 3 weeks (weekly dose of 25 mg/kg). A control group of mice was treated with PBS administered subcutaneously twice a week for 3 weeks but was not administered ISIS 461756.\nAt the end of the treatment period, all the groups were injected with 30 mg/kg of Evans Blue solution into the tail vein. The mice were sacrificed 30 min after the Evans Blue solution administration and colons, feet, ears, and intestines were harvested. The liver was also harvested for RNA analysis.\nRNA was isolated from the liver for RT-PCR analysis of C1-INH and PKK mRNAs. The primer probe set for C1-INH is RTS3218 (forward sequence […], designated herein as SEQ ID NO: 2234; reverse sequence […], designated herein as SEQ ID NO: 2235; probe sequence […], designated herein as SEQ ID NO: 2236). The primer probe set for PKK is RTS3287 (forward sequence […], designated herein as SEQ ID NO: 2237; reverse sequence […], designated herein as SEQ ID NO: 2238; probe sequence […], designated herein as SEQ ID NO: 2239). The results are presented in Table 79 as percent inhibition compared to the PBS control not treated with ISIS 461756."}, "murine PKK mRNA": {"test_system": "murine PKK mRNA", "experiment": "PKK mRNA in BALB/c mice liver (Example 10)", "type": "in vivo, mouse", "details": "for % inhibition of PKK mRNA in BALB/c mice liver: twice a week for 3 weeks, relative to PBS control", "protocol": "ISIS 482584 was tested for its effect on murine PKK mRNA in vivo.\nSix groups of male BALB/c mice each were treated with 2.5 mg/kg, 5.0 mg/kg, 10.0 mg/kg, 20.0 mg/kg, 40.0 mg/kg, or 80.0 mg/kg of ISIS 482584, administered subcutaneously twice a week for 3 weeks (weekly doses of 5.0 mg/kg, 10.0 mg/kg, 20.0 mg/kg, 40.0 mg/kg, 80.0 mg/kg, or 160.0 mg/kg). A control group of BALB/c mice was treated with PBS, administered subcutaneously twice a week for 3 weeks. Two days after the last dose of antisense oligonucleotide or PBS, mice from all groups were anesthetized with 150 mg/kg ketamine mixed with 10 mg/kg xylazine, administered by intraperitoneal injection. Liver was collected for RNA analysis.\nRNA was extracted from liver tissue for real-time PCR analysis of PKK. PKK mRNA levels were measured using the murine primer probe set (forward sequence […], designated herein as SEQ ID NO: 2231; reverse sequence […], designated herein as SEQ ID NO: 2232; probe sequence […], designated herein as SEQ ID NO: 2233). Results are presented as percent inhibition of PKK, relative to PBS control."}}, "note": "Strand notation (5' to 3'): a small letter for the sugar, then the base; units joined by * are phosphorothioate-linked, units joined directly phosphodiester-linked; [ ] holds rarer units or linkages, { } end groups; capitals alone tell only the bases. e = 2'-O-(2-methoxyethyl) (MOE); [5mC] = 5-methylcytosine; d = 2'-deoxy (DNA)"}
{"substance": "ISIS 482584: 5-10-5 MOE gapmer targeting murine PKK, GGCATATTGGTTTTTGGAAT; SEQ ID NO: 2244 (antisense eG*eG*e[5mC]*eA*eT*dA*dT*dT*dG*dG*dT*dT*dT*dT*dT*eG*eG*eA*eA*eT)", "values": [{"measurement": "% inhibition of mouse PKK mRNA levels", "setting": "mouse PKK mRNA; 12.5 nM", "result": 0, "unit": "%"}, {"measurement": "% inhibition of mouse PKK mRNA levels", "setting": "mouse PKK mRNA; 25.0 nM", "result": 47, "unit": "%"}, {"measurement": "% inhibition of mouse PKK mRNA levels", "setting": "mouse PKK mRNA; 50.0 nM", "result": 27, "unit": "%"}, {"measurement": "% inhibition of mouse PKK mRNA levels", "setting": "mouse PKK mRNA; 100.0 nM", "result": 60, "unit": "%"}, {"measurement": "% inhibition of mouse PKK mRNA levels", "setting": "mouse PKK mRNA; 200.0 nM", "result": 82, "unit": "%"}, {"measurement": "IC50", "setting": "mouse PKK mRNA; 12.5-200.0 nM, ~24 h, read-out: half maximal inhibitory concentration (IC50)", "result": 84, "unit": "nM"}, {"measurement": "Percent inhibition of PKK mRNA expression compared to the untreated PBS control", "setting": "PKK mRNA; liver, all groups ISIS 461756 25 mg/kg/wk, pretreatment PBS or oligonucleotide 80 mg/kg/wk sc 3 weeks", "result": 78, "unit": "%"}, {"measurement": "PKK expression", "setting": "PKK mRNA; mouse liver, 40 mg/kg s.c. twice a week for 3 weeks", "result": "significantly reduced PKK expression"}, {"measurement": "% inhibition of PKK mRNA in BALB/c mice liver", "setting": "murine PKK mRNA; 5 mg/kg/wk sc", "result": 3, "unit": "%"}, {"measurement": "% inhibition of PKK mRNA in BALB/c mice liver", "setting": "murine PKK mRNA; 10 mg/kg/wk sc", "result": 42, "unit": "%"}, {"measurement": "% inhibition of PKK mRNA in BALB/c mice liver", "setting": "murine PKK mRNA; 20 mg/kg/wk sc", "result": 68, "unit": "%"}, {"measurement": "% inhibition of PKK mRNA in BALB/c mice liver", "setting": "murine PKK mRNA; 40 mg/kg/wk sc", "result": 85, "unit": "%"}, {"measurement": "% inhibition of PKK mRNA in BALB/c mice liver", "setting": "murine PKK mRNA; 80 mg/kg/wk sc", "result": 91, "unit": "%"}, {"measurement": "% inhibition of PKK mRNA in BALB/c mice liver", "setting": "murine PKK mRNA; 160 mg/kg/wk sc", "result": 94, "unit": "%"}, {"measurement": "reduction of PKK mRNA in liver", "setting": "murine PKK mRNA; BALB/c mice, 2.5-80.0 mg/kg s.c. twice a week for 3 weeks, vs PBS", "result": "significant dose-dependent reduction of PKK mRNA"}]}
